Here are results for four compounds from PMC8772772, “Enantioselective Synthesis and Pharmacological Evaluation of Aza-CGP37157–Lipoic Acid Hybrids for the Treatment of Alzheimer’s Disease” (Antioxidants, 2022).

Each structure is given as a SMILES string. Where “and” joins values, the source holds several entries; their conditions need not be identical. Equal entries are not always repeated.

Assay [1] is described as follows: DPPH reduction assay, antioxidant capacity. The following applies: DPPH 100 µM, 30 min, mean ± SEM; for DPPH Scavenging at 100 µM, %: compound 100 µM; for DPPH Scavenging at 1mM, %: compound 1 mM. The protocol:
Antioxidant capacity was evaluated by using described procedure slightly modified. Compounds (0.1 and 1 mM, final concentration) were diluted in assay media (EtOH/H2O, 70:30) and mixed with 100 μL of DPPH (SigmaAldrich, D9132, Madrid, Spain) solution (100 μM final concentration) in a clear 96-multiwell plate. Final solution was kept in dark for 30 min, and absorbance of DPPH was measured in a SpectroStar Nano plate-reader (BMG Labtech, Ortenberg, Germany) in duplicate at […]. All experiments included a blank (assay media), control (DPPH 100 μM) and a positive control (ascorbic acid, 100 μM). Data were evaluated as % absorbance (Abs) reduction of control after subtracting blank absorbance. % DPPH reduction = [100 − ((Abssample − Absblank) × 100]/Abscontrol
Initially, we evaluated the free-radical-scavenging capacity of derivatives 7a–d in the DPPH assay, based on the capacity of the tested derivatives to react with the 2,2-diphenyl-1-picrylhydracil radical to generate a non-radical derivate. Hybrid derivatives 7a–d were evaluated at two different concentrations (0.1 and 1 mM), considering the activities of previously reported racemic derivatives. […] Ascorbic acid was used as a positive control, and CGP37157, rac-3a and (rac,R)-3b were included as references. […] Those results are similar to those obtained for racemic mixtures 3a and 3b and a mixture of (S,R)-7b and (R,R)-7d obtained from rac-3 and R-lipoic acid.
(Loss of DPPH colour is used to gauge radical scavenging.)

The next assay has as its system NRF2. In words: NRF2 induction, luciferase expression in AREc32 cell line. Format: cell-based. The conditions noted are these: for CD (concentration required to double the specific luciferase activity): AREc32 cells, 0.3, 3, 10 and 30 μM (LA: 0.1–0.6 mM), mean ± SEM. Here is the method:
AREc32 cell line was kindly shared by Professor Roland Wolf (University of Dundee, UK). AREc32 cells were maintained in DMEM/glutamax/high glucose (Gibco, 61965-06, Madrid, Spain), supplemented with 1% penicillin–streptomycin (10,000 units) (SigmaAldrich, P4333, Madrid, Spain), geneticin (0.8 mg/mL) (Gibco, 11811-031) and 10% FBS (Gibco, 10270106), at 37 °C in a 5% CO2 air atmosphere. Cells were used from passage 4 to 18, and mycoplasma contamination was tested every 4 weeks. AREc32 cells were seeded in 96-well white plates (2 × 10^4 cells/well) for 24 h. Thereafter, cells were treated with each compound (0.3, 3, 10 and 30 µM) in duplicate for 24 h. Non-treated cells were included as basal luciferase expression and tert-butylhydroquinone (TBHQ, 10 μM) as positive control in each plate. Luciferase expression was evaluated by using the Luciferase Assay System (Promega, E1483, Madrid, Spain) by luminescence in an Orion II microplate luminometer (Berthold, Germany). Luciferase activity increase was normalized to basal conditions considered as 1. CD values (concentration required to double the luciferase activity) were calculated from dose–response curves of luciferase fold induction vs. compound concentration, fitted by non-linear regression and data interpolated to value 2.
To evaluate the influence of both stereogenic centers in the NRF2 induction capacity of aza-CGP37157-LA hybrids, we used the AREc32 cell line model by analyzing luciferase expression upon treatment with NRF2 inducers. AREc32 cells were exposed to increasing concentrations of tested compounds 7a–d (0.3, […], 10 and 30 μM) during 24 h; thereafter, luciferase expression was evaluated by luminescent assay to calculate the corresponding CD value (concentration to double luciferase expression). […] TBHQ was included as a positive control, and CGP37157, S- and R-LA, rac-3a and (rac,R)-3b and precursors derivatives (R-6 and S-6) were included for comparative purposes. […] Once R-LA is reduced, it might activate the phase II antioxidant response by acting as pro-oxidant over key Cys residues at KEAP1 to generate the corresponding lipoyl-cystinyl disulphide.

Another assay has as its system HO-1 and GCLc. In words: Western blot of NRF2-dependent proteins HO-1 and GCLc in AREc32 cells. It counts as cell-based. The following applies: 30 μM, 24 h, western blot vs basal. The protocol: AREc32 cells were seeded in 6 multi-well plates (1 × 10^6 cells/well) for 24 h and treated with compounds 7a and 7b (30 µM) and culture medium (basal) for 24 h. Thereafter, cells were collected and lysed in ice-cold lysis buffer (10% glycerol, 137 mM NaCl, 1% Nonidet P-40, 20 mM Tris HCl pH 7.5, 1 mM phenylmethylsulfonyl fluoride, 20 mM NaF, 1 mM sodium pyrophosphate, 1 μg/mL leupeptin and 1 mM Na3VO4). Then proteins (30 μg) were resolved by gel electrophoresis on sodium dodecyl sulfate–polyacrylamide (10% and 12%) and transferred to Immobilion-P membranes (MilliporeSigma, Madrid, Spain). The membranes were incubated with anti-GCLc (1:1000, Ab41463 (Abcam, Cambridge, MA, USA), anti-HO-1 (1:1000, ab68477, Abcam) or anti-Actin (1:100,000, A3854, Merck, Madrid, Spain). Peroxidase-conjugated secondary antibodies (1:10,000 and antirabbit: SC-2357, Santa Cruz Biotechnology, Dallas, TX, USA) were employed to detect the proteins by enhanced chemiluminescence. Band intensities corresponding to immunoblot detection of protein samples were quantitated with Fiji software.
Once in the nucleus, NRF2 binds to small MafG protein, and the resulting complex binds to the ARE sequences at the DNA to initiate the expression of phase II antioxidant proteins. HO-1 and GCLc are two prominent examples of antioxidant enzymes regulated by the NRF2-ARE pathway related to the heme group processing and the synthesis of glutathione, the major antioxidant defense inside the cells. […] Thereafter, protein expression was evaluated.
For orientation: Immunoblotting shows a protein as a band on a membrane.

On to `O=C1CN(CCOC(=O)CCCC[C@@H]2CCSS2)[C@@H](c2ccccc2Cl)c2cc(Cl)ccc2N1` [(R,R)-7d, 2-((R)-7-Chloro-5-(2-chlorophenyl)-2-oxo-1,2,3,5-tetrahydro-4H-benzo[e][1,4]diazepin-4-yl)ethyl 5-((R)-1,2-dithiolan-3-yl)pentanoate], for which, in assay [1], the “DPPH Scavenging at 100 µM, %” value is reported as 8.66 ± 3.0% and the “DPPH Scavenging at 1mM, %” value is given as 23.3 ± 3.5%. The “luciferase activity increase at 30 μM” value in the assay with NRF2 (AREc32 cells, 24 h, vs basal) is listed as “significantly increase luciferase activity”. Also, the “CD (concentration required to double the specific luciferase activity)” value (“CD” below) with NRF2 (24 h) is “over 30 μM”.
Turning to `O=C1CN(CCOC(=O)CCCC[C@@H]2CCSS2)[C@H](c2ccccc2Cl)c2cc(Cl)ccc2N1` [(R,S)-7c, 2-((S)-7-Chloro-5-(2-chlorophenyl)-2-oxo-1,2,3,5-tetrahydro-4H-benzo[e][1,4]diazepin-4-yl)ethyl 5-((R)-1,2-dithiolan-3-yl)pentanoate], in assay [1], the “DPPH Scavenging at 100 µM, %” value is given as 13.6 ± 3.8%; the “DPPH Scavenging at 1mM, %” value is 35.9% and 35.9 ± 1.9%. Besides, the “luciferase activity increase at 10 μM” value with NRF2 (AREc32 cells, 10 μM, 24 h, vs basal) was “significantly increase luciferase activity”. In addition, the “luciferase activity increase at 30 μM” value in the assay on NRF2 (AREc32 cells, 24 h, vs basal) is “significantly increase luciferase activity”. Besides, in the assay with NRF2 (24 h), the “CD” value is on record as “over 30 μM”.
As for `O=C1CN(CCOC(=O)CCCC[C@H]2CCSS2)[C@@H](c2ccccc2Cl)c2cc(Cl)ccc2N1` [(S,R)-7b, 2-((R)-7-Chloro-5-(2-chlorophenyl)-2-oxo-1,2,3,5-tetrahydro-4H-benzo[e][1,4]diazepin-4-yl)ethyl 5-((S)-1,2-dithiolan-3-yl)pentanoate], in assay [1], the “DPPH Scavenging at 100 µM, %” value is 8.46 ± 3.8% and the “DPPH Scavenging at 1mM, %” value stood at 32.0 ± 1.7%. Moreover, in the assay on HO-1 and GCLc, the GCLc expression result is reported as “significantly increased” and the HO-1 expression entry was “significantly increased”. Further, in the assay on NRF2 (24 h), the “CD” value was determined as 11.9 ± 1.3 µM. In the assay on NRF2 (ratio of CD values), the “NRF2 induction potency relative to (S,S)-7a” value was determined as 2.2 fold.
Take `O=C1CN(CCOC(=O)CCCC[C@H]2CCSS2)[C@H](c2ccccc2Cl)c2cc(Cl)ccc2N1` [(S,S)-7a, 2-((S)-7-Chloro-5-(2-chlorophenyl)-2-oxo-1,2,3,5-tetrahydro-4H-benzo[e][1,4]diazepin-4-yl)ethyl 5-((S)-1,2-dithiolan-3-yl)pentanoate]: in assay [1], the “DPPH Scavenging at 100 µM, %” value is listed as 10.9 ± 3.5% and the “DPPH Scavenging at 1mM, %” value amounted to 30.3 ± 1.6%. In the assay on HO-1 and GCLc, the GCLc expression entry is given as “significantly increased” and the HO-1 expression entry is “significantly increased”. The “CD” value with NRF2 (24 h) is 26.5 ± 1.3 µM.
